Assay results: PMC8837726 (Chirality, 2021)
pEC50: −log10 of the molar value. Like-named read-outs stand apart in the source and are kept apart here.

How the values were obtained:
in vitro [1] = conditions: mouse, mSTC-1 cells
in vitro [2] = conditions: human, hNCI-H716 colorectal adenocarcinoma cells
[3] = test system: GLP-1 secretion from mSTC-1 cells; assay: Concentration-response curve; assay type: cell-based, mouse
[4] = test system: GLP-1 release from hNCI-H716 colorectal adenocarcinoma cell line; assay: CRC EC50 in GLP-1 release from hNCI-H716 cells; assay type: cell-based; conditions: Homo sapiens, read-out: hNCI-H716 GLP1 Sec CRC EC50
[5] = test system: GLP-1 secretion from mouse secretin tumor (mSTC-1) intestinal enteroendocrine cells; assay: ELISA primary assay: GLP-1 secretion from mSTC-1 cells, percent stimulation; assay type: cell-based; conditions: for mSTC-1 GLP1 Sec %Stim@2 μM: 2 μM test compound; for mSTC-1 GLP1 Sec %Stim@2 μM / mSTC-1 GLP1 Sec %Stim@20 μM: mSTC-1 cells, ELISA; for mSTC-1 GLP1 Sec %Stim@20 μM: 20 μM test compound; for activation at 20 µM: Mus musculus, read-out: mSTC-1 GLP1 Sec %Stim@20 μM
[6] = Mus musculus, read-out: mSTC-1 GLP1 Sec CRC EC50, mSTC-1 cells, concentration-response curve
[7] = read-out: mSTC-1 GLP1 Sec CRC EC50, mSTC-1 cells, concentration-response curve

Row | SMILES | pEC50 (in vitro [1]) | pEC50 (in vitro [2]) | pEC50 [3, 6] | pEC50 [3, 7] | pEC50 [4] | mSTC-1 GLP1 Sec %Stim@2 μM [5] | mSTC-1 GLP1 Sec %Stim@20 μM [5] | activation at 20 µM [5]
1 | COc1ccc2c(c1)[C@@H](NC(=O)OCc1ccccc1)[C@H](C)[C@@H](c1ccccc1)N2 [Compound 5a, benzyl (2S,3R,4S)-6-methoxy-3-methyl-2-phenyl-1,2,3,4-tetrahydroquinolin-4-ylcarbamate] | < 4.40 | < 4.40 | > 5.00 | 5.28 | < 4.40 | 2% | 68% | –
2 | COc1ccc2c(c1)[C@@H](NC(=O)OCc1ccccc1)[C@H](C)[C@@H](C(C)C)N2 [Compound 5b, Benzyl ((2R,3R,4S)-2-isopropyl-6-methoxy-3-methyl-1,2,3,4-tetrahydroquinolin-4-yl)carbamate] | < 4.40 | < 4.40 | 4.97 | – | < 4.40 | 0% | 98% | –
3 | CC[C@H]1Nc2ccc(NC(=O)OC(C)(C)C)cc2[C@@H](NC(=O)OCc2ccccc2)[C@@H]1C [Compound 5e, Benzyl tert-butyl ((2R,3R,4S)-2-ethyl-3-methyl-1,2,3,4-tetrahydroquinoline-4,6-diyl)dicarbamate] | – | – | – | – | – | – | – | 0%
4 | COc1ccc2c(c1)[C@@H](NC(=O)OCc1ccccc1)[C@H](C)[C@@H](c1cccnc1)N2 [Compound 5f, Benzyl (2S,3R,4S)-6-methoxy-3-methyl-2-(pyridin-3-yl)-1,2,3,4-tetrahydroquinolin-4-ylcarbamate] | – | – | – | – | – | 0% | 22% | –
5 | COc1ccc2c(c1)[C@@H](NC(=O)OCc1ccccc1)[C@H](C)[C@@H](c1ccccc1)N2Cc1cccc(F)c1 [Compound 6a, Benzyl(2S,3S,4S)-1-(3-fluorobenzyl)-6-methoxy-3-methyl-2phenyl-1,2,3,4-tetrahydroquinolin-4-ylcarbamate] | < 4.40 | < 4.40 | < 4.40 | – | < 4.40 | 8% | 40% | –
6 | COc1ccc2c(c1)[C@@H](NC(=O)OCc1ccccc1)[C@H](C)[C@@H](c1ccccc1)N2Cc1ccccn1 [Compound 6c, Benzyl (2S,3S,4S)-6-methoxy-3-methyl-2-phenyl-1-(pyridin-2-ylmethyl)-1,2,3,4-tetrahydroquinolin-4-ylcarbamate] | – | – | – | – | – | – | – | 0%
7 | COc1ccc2c(c1)[C@@H](NC(=O)OCc1ccccc1)[C@H](C)[C@@H](c1ccccc1)N2C(=O)NC(C)C [Compound 6g, Benzyl ((2S,3S,4S)-1-(isopropylcarbamoyl)-6-methoxy-3-methyl-2-phenyl-1,2,3,4-tetrahydroquinolin-4-yl)carbamate] | – | – | – | – | – | – | – | 0%
8 | COc1ccc2c(c1)[C@@H](NCc1nccs1)[C@H](C)[C@@H](c1ccccc1)N2C(=O)NC(C)C [Compound 8d, (2S,3S,4S)-N-Isopropyl-6-methoxy-3-methyl-2-phenyl-4-((thiazol-2-ylmethyl)amino)-3,4-dihydroquinoline-1(2H)-carboxamide] | < 4.40 | < 4.40 | < 4.40 | – | < 4.40 | 0% | 28% | –
9 | COc1ccc2c(c1)[C@@H](NCc1ccccn1)[C@H](C)[C@@H](c1ccccc1)N2C(=O)NC(C)C [Compound 8e, (2S,3S,4S)-N-isopropyl-6-methoxy-3-methyl-2-phenyl-4-((pyridin-2-ylmethyl)amino)-3,4-dihydroquinoline-1(2H)-carboxamide] | – | – | – | – | – | – | – | 0%
10 | COc1ccc2c(c1)[C@@H](NC(=O)c1c(C)noc1C)[C@H](C)[C@@H](c1ccccc1)N2C(=O)NC(C)C [Compound 8f, N-((2S,3S,4S)-1-(Isopropylcarbamoyl)-6-methoxy-3-methyl-2-phenyl-1,2,3,4-tetrahydroquinolin-4-yl)-3,5-dimethylisoxazole-4-carboxamide] | – | – | – | – | – | – | – | 0%
11 | COc1ccc2c(c1)[C@@H](NC(C)=O)[C@H](C)[C@@H](c1ccccc1)N2C(=O)Nc1ccc(C(F)(F)F)cc1 [Compound 8i, (2S,3S,4S)-4-Acetamido-6-methoxy-3-methyl-2-phenyl-N-(4-(trifluoromethyl)phenyl)-3,4-dihydroquinoline-1(2H)-carboxamide] | – | – | – | – | – | – | – | 0%
12 | COc1ccc2c(c1)[C@@H](NC(=O)c1c(C)noc1C)[C@H](C)[C@@H](c1ccccc1)N2Cc1cccc(F)c1 [Compound 8j, N-((2S,3S,4S)-1-(3-Fluorobenzyl)-6-methoxy-3-methyl-2-phenyl-1,2,3,4-tetrahydroquinolin-4-yl)-3,5-dimethylisoxazole-4-carboxamide] | – | – | – | – | – | – | – | 0%
13 | COc1ccc2c(c1)[C@@H](NS(C)(=O)=O)[C@H](C)[C@@H](c1ccccc1)N2Cc1cccc(F)c1 [Compound 8k, N-((2S,3R,4S)-1-(3-Fluorobenzyl)-6-methoxy-3-methyl-2-phenyl-1,2,3,4-tetrahydroquinolin-4-yl)methanesulfonamide] | < 4.40 | < 4.40 | > 5.00 | 5.08 | < 4.40 | 0% | 53% | –
14 | CC[C@H]1Nc2ccc(OC)cc2[C@@H](NS(C)(=O)=O)[C@@H]1C [Compound 8l, N-((2R,3R,4S)-2-Ethyl-6-methoxy-3-methyl-1,2,3,4-tetrahydroquinolin-4-yl)methanesulfonamide] | – | – | – | – | – | – | – | 0%
15 | COc1ccc2c(c1)[C@@H](NS(C)(=O)=O)[C@H](C)[C@@H](C(C)C)N2 [Compound 8m, N-((2R,3R,4S)-2-Isopropyl-6-methoxy-3-methyl-1,2,3,4-tetrahydroquinolin-4-yl)methanesulfonamide] | – | – | – | – | – | – | – | 0%
16 | CC[C@H]1Nc2ccc(OC)cc2[C@@H](NCc2nccs2)[C@@H]1C [Compound 8n, (2R,3R,4S)-2-Ethyl-6-methoxy-3-methyl-N-(thiazol-2-ylmethyl)-1,2,3,4-tetrahydroquinolin-4-amine] | < 4.40 | < 4.40 | 4.58 | – | < 4.40 | 0% | 49% | –
17 | COc1ccc2c(c1)[C@@H](NCc1nccs1)[C@H](C)[C@@H](C(C)C)N2 [Compound 8o, (2R,3R,4S)-2-Isopropyl-6-methoxy-3-methyl-N-(thiazol-2-ylmethyl)-1,2,3,4-tetrahydroquinolin-4-amine] | < 4.40 | < 4.40 | 4.77 | – | < 4.40 | 0% | 61% | –
18 | COc1ccc2c(c1)[C@@H](N(Cc1nccs1)Cc1nccs1)[C@H](C)[C@@H](C(C)C)N2 [Compound 8p, (2R,3R,4S)-2-Isopropyl-6-methoxy-3-methyl-N,N-bis(thiazol-2-ylmethyl)-1,2,3,4-tetrahydroquinolin-4-amine] | < 4.40 | < 4.40 | 4.66 | – | < 4.40 | 0% | 80% | –
19 | CC[C@H]1Nc2ccc(NC(C)=O)cc2[C@@H](NS(C)(=O)=O)[C@@H]1C [Compound 8q, N-((2R,3R,4S)-2-Ethyl-3-methyl-4-(methylsulfonamido)-1,2,3,4-tetrahydroquinolin-6-yl)acetamide] | – | – | – | – | – | 0% | 18% | –
20 | C[C@@H]1[C@@H](c2ccccc2)Nc2ccc(-c3ccccc3)cc2[C@H]1NC(=O)OCc1ccccc1 [Compound 9, Benzyl (2S,3R,4S)-3-methyl-2,6-diphenyl-1,2,3,4-tetrahydroquinolin-4-ylcarbamate] | < 4.40 | < 4.40 | 5.66 | – | < 4.40 | 82% | 99% | –
